No end group written: not given here.
Legend:
[1] = test system: corolase; experiment: Compatibility of surfactants with enzymes: remaining enzyme activity; format: biochemical; conditions: 1% SDS, within 15 minutes
Description: (§1) In selection of suitable surfactants, one must make sure that they are compatible with the enzymes used. It is preferable that the enzyme activity not decrease more than 50%, particularly not more than 30%, during a typical average working time of 15 minutes. Thus, tests have shown that sodium dodecyl sulfate (SDS), which is known to be a denaturant, reduces the activity of corolase to less than 30% within 15 minutes, even at a concentration of 1%, while the activity of xylanase decreases to less than 40% with only 0.1% SDS, so that surfactant is not preferred for use in the cleaning agents according to the invention. If that surfactant, or one with similar action, must nevertheless be used, one should preferably make sure of spatial separation during storage, such as by encapsulating the enzyme or by use of a multichamber bottle so that the enzyme and surfactant come into contact with each other only immediately before or during use. Alkyl polyglycosides, on the other hand, are well suited for use in enzyme-containing agents according to this invention. For instance, the activity of corolase remains clearly over 50% even with 3% APG 600, while xylanase actually experiences an increase in activity from the use of APG 600 (more than 150% activity with 0.1% surfactant) and still has more than 80% activity with 3% APG.

[2] = test system: xylanase; experiment: as above; format: biochemical; conditions: 0.1% SDS
Description: as §1

[3] = test system: Staphylococcus epidermidis; experiment: Inhibition of skin microorganisms by human β-defensin 2: CFU count, reduction factor vs control; format: cell-based; conditions: S. epidermidis; for inhibition of the microorganism (in words): useful skin microorganism; for logarithmic decrease in the cell number (RF): 35.7 μg/ml, compared with the control
Description: (§2) Staphylococcus epidermidis and bacillus lichenformis were grown in LB medium under aerobic conditions at 37° C. Propionibacterium acnes was grown in TBST medium under anaerobic conditions at 37° C. The concentration of human β-defensin 2 was 35.7 μg/ml. Procedure: 18-hour cultures (S. epidermidis and B. lichenformis) or 5-day cultures (P. acnes) in LB or TBST liquid media; Measurement of the cultures at A620 nm; Adjustment in PBS [phosphate-buffered saline] to the proper A620 nm for 10^6 CFU/ml of the test strain; Microbial content checked with a dilution series in MTP brief procedure and plating; Make up stock solution of the ingredient AWK in PBS; Put 10 μl aliquots of the test strain suspension in the PCR tubes provided for AWK and control; Add to each 10 μl aliquots of AWK or PBS; Incubate aerobically at 37° C.; Determine the microbial content of the suspensions after 8 and 24 hours, with a dilution series in the MTP brief procedure and plating; Incubation of the agar plates under proper conditions for the strain; Evaluation, by visual check of the cultured agar plates, 8 or 24 hours after the start of the test; determination of the CFU and calculation of the reduction factors.

[4] = test system: Propionibacterium acnes; experiment: as above; format: cell-based; conditions: P. acnes; for inhibition of the microorganism (in words): harmful organism; for logarithmic decrease in the cell number (RF): 35.7 μg/ml, compared with the control
Description: as §2

[5] = test system: bacillus lichenformis; experiment: as above; format: cell-based; conditions: B. lichenformis; for inhibition of the microorganism (in words): useful skin microorganism; for logarithmic decrease in the cell number (RF): 35.7 μg/ml, compared with the control
Description: as §2

| activity of corolase [1] | activity of xylanase [2] | Compound | inhibition of the microorganism (in words) ([3]; listed as human β-defensin 2) | inhibition of the microorganism (in words) ([3]; listed as β-defensin 2) | logarithmic decrease in the cell number (RF) ([3]; exposure time 8 hr) | logarithmic decrease in the cell number (RF) ([3]; exposure time 24 hr) | inhibition of the microorganism (in words) ([4]; listed as human β-defensin 2) | inhibition of the microorganism (in words) ([4]; listed as β-defensin 2) | logarithmic decrease in the cell number (RF) ([4]; exposure time 8 hr) | logarithmic decrease in the cell number (RF) ([4]; exposure time 24 hr) | inhibition of the microorganism (in words) ([5]; listed as human β-defensin 2) | inhibition of the microorganism (in words) ([5]; listed as β-defensin 2) | logarithmic decrease in the cell number (RF) ([5]; exposure time 8 hr) | logarithmic decrease in the cell number (RF) ([5]; exposure time 24 hr) |
| --- | --- | --- | --- | --- | --- | --- | --- | --- | --- | --- | --- | --- | --- | --- |
| less than 30% | less than 40% | CCCCCCCCCCCCOS(=O)(=O)[O-].[Na+] [SDS, sodium dodecyl sulfate] | – | – | – | – | – | – | – | – | – | – | – | – |
| – | – | human β-defensin 2 (GIGDPVTCLKSGAICHPVFCPRRYKQIGGCGLPGTKCCKKP; ends and bridges not checked; cysteine pairing not given here) [used as hBD2 (Sigma) in the formulations] | only slight inhibition | only a slight inhibitory effect | 0.1963 | 0.09922 | good inhibition | distinctly more strongly inhibited | 0.9586 | 1.833 | only slight inhibition | only a slight inhibitory effect | 0.09275 | 0.3716 |

Reference: patent publication US20080050398A1, “Composition Comprising Beta-Defensin 2” (priority 2005, published 2008)
